Measured values: US20260216105A1, “CAPSAICIN EMULSION COMPOSITION, PREPARATION METHOD THEREFOR, AND USE THEREOF” (priority 2022, published 2026)
Converted amounts (≈) assume the structure as drawn.

What was measured:
Format in all cases: physicochemical
[1] = Physical phenomena of active ingredient / water-soluble solvent / water ternary mixtures; details: for formation of a liquid-liquid phase separation system with ethanol and water: bupivacaine:EtOH 1:2, ropivacaine:EtOH 1:10; for mass ratio of water:EtOH (x:1) forming a liquid-liquid phase separation state: both at 0 h and 24 h after standing
Procedure: (§1) A stock solution was prepared with a mass ratio of CAP:EtOH=1:5. Then, 0.5 g samples of the stock solution were taken and respectively added into PE tubes, and different amounts of water (based on mass ratio of water to CAP) were added according to Table 6. […]
According to the protocols in Examples 4.1-4.3, the physical states of mixtures containing CAP and EtOH (at mass ratios of 1:1, 1:5, and 1:10) and different proportions of water (based on mass ratio of water to CAP) were studied at 0 h and 24 h after standing. […]
as §1, with “bupivacaine:EtOH=1:2.” for “CAP:EtOH=1:5.”, “on” for “on mass”, “bupivacaine)” for “CAP)”, “14. The ternary mixtures were shaken and observed at 0 h and 24 h after standing.” for “6.”

[2] = physchem; details: for solubility at 24 h: 25 °C, thermodynamic from solid
Procedure: About 3 g of each solvent was weighed according to Table 3, and an excess amount of capsaicin was added. The mixture was placed into a constant-temperature oscillator for oscillation for 24 h (25° C., 200 rpm), and then centrifuged at 10000 rpm for 30 min. The supernatant was taken to measure the capsaicin content. The solubility of CAP in different solvents (different pH buffers, commonly used oil phases, and water-soluble organic solvents) was measured, with the results shown in Table 3: […]

[3] = Physical phenomena of active ingredient / water-soluble solvent / water ternary mixtures

CCCCN1CCCCC1C(=O)Nc1c(C)cccc1C (stereo not shown) [bupivacaine]
formation of a liquid-liquid phase separation system with ethanol and water [1]: failed to form a liquid-liquid phase separation system

COc1cc(CNC(=O)CCCC/C=C/C(C)C)ccc1O [CAP, capsaicin]
solubility at 24 h ([2]; oil or lipid, Castor oil, shaken at 25° C. for 24 h): 36000 µg/mL (≈ 118 mM)
solubility at 24 h ([2]; oil or lipid, GDO, shaken at 25° C. for 24 h): 45000 µg/mL (≈ 147 mM)
solubility at 24 h ([2]; oil or lipid, MCT, shaken at 25° C. for 24 h): 14000 µg/mL (≈ 45.8 mM)
solubility at 24 h ([2]; organic solvent or mixture, DGME, shaken at 25° C. for 24 h): 502000 µg/mL (≈ 1640 mM)
solubility at 24 h ([2]; organic solvent or mixture, DMI, shaken at 25° C. for 24 h): > 500000 µg/mL
solubility at 24 h ([2]; organic solvent or mixture, Ethanol, shaken at 25° C. for 24 h): > 500000 µg/mL
solubility at 24 h ([2]; organic solvent or mixture, Isopropanol, shaken at 25° C. for 24 h): > 500000 µg/mL
solubility at 24 h ([2]; organic solvent or mixture, PEG200, shaken at 25° C. for 24 h): 367000 µg/mL (≈ 1200 mM)
solubility at 24 h ([2]; organic solvent or mixture, Propylene glycol, shaken at 25° C. for 24 h): 290000 µg/mL (≈ 950 mM)
solubility at 24 h ([2]; organic solvent or mixture, in some water-soluble organic solvents): > 250000 µg/mL
solubility at 24 h ([2]; pH 1, simulated gastric fluid, pH 1.0 hydrochloric acid medium, shaken at 25° C. for 24 h): 45 µg/mL (≈ 0.147 mM)
solubility at 24 h ([2]; pH 2, simulated gastric fluid, pH 2.0 hydrochloric acid medium, shaken at 25° C. for 24 h): 52 µg/mL (≈ 0.17 mM)
solubility at 24 h ([2]; pH 3, aqueous buffer, pH 3.0 phosphate medium, shaken at 25° C. for 24 h): 44 µg/mL (≈ 0.144 mM)
solubility at 24 h ([2]; pH 4, aqueous buffer, pH 4.0 acetate medium, shaken at 25° C. for 24 h): 53 µg/mL (≈ 0.174 mM)
solubility at 24 h ([2]; pH 5, aqueous buffer, pH 5.0 acetate medium, shaken at 25° C. for 24 h): 52 µg/mL (≈ 0.17 mM)
solubility at 24 h ([2]; pH 6, aqueous buffer, pH 6.0 phosphate medium, shaken at 25° C. for 24 h): 46 µg/mL (≈ 0.151 mM)
solubility at 24 h ([2]; pH 7, aqueous buffer, pH 7.0 phosphate medium, shaken at 25° C. for 24 h): 45 µg/mL (≈ 0.147 mM)
solubility at 24 h ([2]; pH 8, aqueous buffer, pH 8.0 phosphate medium, shaken at 25° C. for 24 h): 42 µg/mL (≈ 0.138 mM)
solubility at 24 h ([2]; pH 9, aqueous buffer, pH 9.0 carbonate medium, shaken at 25° C. for 24 h): 53 µg/mL (≈ 0.174 mM)
solubility at 24 h ([2]; pH 10, aqueous buffer, pH 10.0 carbonate medium, shaken at 25° C. for 24 h): 102 µg/mL (≈ 0.334 mM)
Solubility ([2]; Corn oil, shaken at 25° C. for 24 h): 5000 µg/mL (≈ 16.4 mM)
Solubility ([2]; Peanut oil, shaken at 25° C. for 24 h): 5000 µg/mL (≈ 16.4 mM)
Solubility ([2]; Rapeseed oil, shaken at 25° C. for 24 h): 5000 µg/mL (≈ 16.4 mM)
mass ratio of water:EtOH (x:1) forming a liquid-liquid phase separation state ([1]; CAP:EtOH 1:1): 0.65-2
mass ratio of water:EtOH (x:1) forming a liquid-liquid phase separation state ([1]; CAP:EtOH 1:5): 1-2.2
mass ratio of water:EtOH (x:1) forming a liquid-liquid phase separation state ([1]; CAP:EtOH 1:10): 1.4-2.5
formation of a liquid-liquid phase separation system with PEG200 and water ([1]; CAP:PEG200 1:3): could not form a liquid-liquid phase separation system
formation of a liquid-liquid phase separation system with PEG200 and water ([1]; CAP:PEG200 1:5 (increased mass of PEG200)): failed to enable the formation of a liquid-liquid phase separation system
formation of a liquid-liquid phase separation system with propylene glycol and water ([1]; CAP:propylene glycol 1:5): failed to form a liquid-liquid phase separation system
mass ratio of water:DGME (x:1) forming a liquid-liquid phase separation system ([3]; CAP:DGME 1:1): 1-2
mass ratio of water:DMI (x:1) forming a liquid-liquid phase separation system ([3]; CAP:DMI 1:3): 0.3-2
mass ratio of water:IPA (x:1) forming a liquid-liquid phase separation system ([3]; CAP:IPA 1:1): 0.5-2

CCCN1CCCC[C@H]1C(=O)Nc1c(C)cccc1C [ropivacaine]
formation of a liquid-liquid phase separation system with ethanol and water [1]: failed to form a liquid-liquid phase separation system
